Reference: US20230102554A1 (GB002, INC., priority 2019, published 2023)
pIC50: −log10 of the molar value.

Tests used:
[1] = biological target: T1, Human PDGFRα, cytoplasmic domain (GST-PDGFRα) (Homo sapiens, UniProt P16234); assay: Human PDGFRα biochemical inhibition assay (off-chip Mobility Shift Assay)
T1 construct: made in house

[2] = biological target: T2, Human PDGFRβ, cytoplasmic domain (GST-PDGFRβ) (Homo sapiens, UniProt P09619); assay: Human PDGFRβ biochemical inhibition assay (off-chip Mobility Shift Assay)
T2 construct: made in house
Description: Human PDGFRβ Biochemical Inhibition Assay
The compounds described herein were tested for the ability to inhibit activity of PDGFRβ which was achieved via use of an off-chip Mobility Shift Assay (MSA). Human PDGFRβ, cytoplasmic domain [557-1106 (end) amino acids of accession number NP_002600.1 (SEQ ID NO: 3)] was expressed as N-terminal GST-fusion protein (88 kDa) using baculovirus expression system (SEQ ID NO: 4). GST-PDGFRβ was purified by using glutathione sepharose chromatography. Test compounds were dissolved in and diluted with dimethylsulfoxide (DMSO) to achieve 1 mM concentration. Then the solution was further diluted 25-fold with assay buffer to make the final test compound solution. The reference compound, Staurosporine, used as the assay positive control was prepared similarly. The 4× compound solution/substrate (CSKtide, 1000 nM)/ATP (Km ATP)/Mg Metal (5 mM) was prepared with kit buffer (20 mM HEPES, 0.01% Triton X-100, 5 mM DTT, pH 7.5), and 2× kinase solution was prepared with assay buffer (20 mM HEPES, 0.01% Triton X-100, 1 mM DTT, pH 7.5). The 5 μL of 4× compound solution, […] of 4× Substrate/ATP/Metal solution, and […] of 2× kinase solution were mixed and incubated in a well of polypropylene 384 well microplate for 1 hour at room temperature. […] of Termination Buffer (QuickScout Screening Assist MSA; Carna Biosciences) was added to the well. The reaction mixture was applied to LabChip™ system (Perkin Elmer), and the product and substrate peptide peaks were separated and quantitated. The kinase reaction was evaluated by the product ratio calculated from peak heights of product(P) and substrate(S) peptides (P/(P+S)). The readout value of reaction control (complete reaction mixture) was set as a 0% inhibition, and the readout value of background (Enzyme(−)) was set as a 100% inhibition, then the percent inhibition of each test solution was calculated.
With respect to PDGFRβ activity: “+++” denotes an IC50 of less than 300 nM; “++” denotes an IC50 of from 300 nM to less than 1000 nM; and “+” denotes an IC50 of 1000 nM or more.

T1 sequence (P16234 550-1089 T674I): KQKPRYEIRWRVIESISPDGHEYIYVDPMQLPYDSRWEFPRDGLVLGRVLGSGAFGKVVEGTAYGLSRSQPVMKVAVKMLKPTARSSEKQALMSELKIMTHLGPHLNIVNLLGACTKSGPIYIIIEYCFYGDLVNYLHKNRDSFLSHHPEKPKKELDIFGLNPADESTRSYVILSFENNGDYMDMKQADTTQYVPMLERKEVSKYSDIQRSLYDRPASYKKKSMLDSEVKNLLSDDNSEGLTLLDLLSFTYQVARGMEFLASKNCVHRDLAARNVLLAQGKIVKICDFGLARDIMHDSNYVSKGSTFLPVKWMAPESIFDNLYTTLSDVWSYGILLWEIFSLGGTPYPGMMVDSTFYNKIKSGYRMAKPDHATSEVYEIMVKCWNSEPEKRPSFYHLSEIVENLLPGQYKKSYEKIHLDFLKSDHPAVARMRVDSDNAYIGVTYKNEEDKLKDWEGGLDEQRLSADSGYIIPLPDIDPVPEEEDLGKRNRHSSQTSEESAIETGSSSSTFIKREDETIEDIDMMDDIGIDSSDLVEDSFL
T2 sequence (P09619 with tags, fused parts or gaps): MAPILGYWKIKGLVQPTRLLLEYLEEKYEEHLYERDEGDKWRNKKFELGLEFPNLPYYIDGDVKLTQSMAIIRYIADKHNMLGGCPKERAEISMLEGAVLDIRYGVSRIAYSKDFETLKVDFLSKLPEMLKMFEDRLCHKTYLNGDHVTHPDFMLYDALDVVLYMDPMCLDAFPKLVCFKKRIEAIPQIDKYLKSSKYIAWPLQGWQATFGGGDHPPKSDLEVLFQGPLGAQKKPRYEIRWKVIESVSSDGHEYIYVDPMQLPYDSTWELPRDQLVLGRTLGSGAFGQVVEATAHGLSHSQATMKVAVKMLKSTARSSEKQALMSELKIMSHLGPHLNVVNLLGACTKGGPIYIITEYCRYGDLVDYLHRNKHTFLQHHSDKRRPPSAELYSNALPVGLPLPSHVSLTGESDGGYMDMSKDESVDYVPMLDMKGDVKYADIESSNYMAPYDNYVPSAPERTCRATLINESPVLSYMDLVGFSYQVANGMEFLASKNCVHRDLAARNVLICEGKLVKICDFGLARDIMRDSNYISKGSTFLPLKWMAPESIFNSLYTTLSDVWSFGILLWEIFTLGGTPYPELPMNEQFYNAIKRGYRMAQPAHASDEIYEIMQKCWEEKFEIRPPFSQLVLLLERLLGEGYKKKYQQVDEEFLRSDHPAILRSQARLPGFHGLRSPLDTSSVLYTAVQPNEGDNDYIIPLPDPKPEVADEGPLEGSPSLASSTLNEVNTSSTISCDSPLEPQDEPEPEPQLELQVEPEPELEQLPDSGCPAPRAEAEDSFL

SMILES	pIC50 [1]	pIC50 [2]
COc1ccc2cc(N[C@@H](C)c3cccc(NC(=O)c4cncc(C)c4)c3)cnc2c1 [Compound 28, (S)-N-(3-(1-((7-methoxyquinolin-3-yl)amino)ethyl)phenyl)-5-methylnicotinamide]	> 6.52	> 6.52
Cc1cncc(C(=O)Nc2cccc([C@H](C)Nc3cncc4nn(C)cc34)c2)c1 [Compound 747, (S)-5-methyl-N-(3-(1-((2-methyl-2H-pyrazolo[3,4-c]pyridin-4-yl)amino)ethyl)phenyl)nicotinamide]	≤ 6.00	≤ 6.00
Cc1n[nH]c2ncc(N[C@@H](C)c3cccc(NC(=O)c4ccc(C5CC5)nc4)c3)nc12 [Compound 535, (S)-6-cyclopropyl-N-(3-(1-((3-methyl-1H-pyrazolo[3,4-b]pyrazin-5-yl)amino)ethyl)phenyl)nicotinamide]	> 6.52	> 6.52
CCn1cc2ncc(N[C@@H](C)c3cc(NC(=O)Cc4ccc(C)cn4)ccc3F)nc2n1 [Compound 689, (S)-N-(3-(1-((2-ethyl-2H-pyrazolo[3,4-b]pyrazin-6-yl)amino)ethyl)-4-fluorophenyl)-2-(5-methylpyridin-2-yl) acetamide]	> 6.52	≤ 6.00
Cc1cncc(C(=O)Nc2cccc([C@H](C)Nc3cncc4c3cnn4-c3cnn(C)c3)c2)c1 [Compound 21]	> 6.52	> 6.52
C[C@H](Nc1cnc2cnn(C)c2n1)c1cccc(NC(=O)N2CCCC(C(F)(F)F)C2)c1 (stereo partly drawn) [Compound 54, N-(3-((S)-1-((1-methyl-1H-pyrazolo[3,4-b]pyrazin-6-yl)amino)ethyl)phenyl)-3-(trifluoromethyl)piperidine-1-carboxamide]	> 6.52	> 6.52
CCn1cc2ncc(N[C@@H](C)c3cccc(NC(=O)c4cncc(F)c4)c3)nc2n1 [Compound 355, (S)-N-(3-(1-((2-ethyl-2H-pyrazolo[3,4-b]pyrazin-6-yl)amino)ethyl)phenyl)-5-fluoronicotinamide]	6.00 to 6.52	≤ 6.00
C[C@H](Nc1cnc2cnn(C)c2n1)c1cccc(NC(=O)c2cccc(S(C)(=O)=O)c2)c1 [Compound 226, (S)-N-(3-(1-((1-methyl-1H-pyrazolo[3,4-b]pyrazin-6-yl)amino)ethyl)phenyl)-3-(methylsulfonyl)benzamide]	> 6.52	> 6.52
C[C@H](Nc1cnc2cnn(C)c2n1)c1cc(NC(=O)c2cnn(C3CCC3)c2)ccc1F [Compound 213, (S)-1-cyclobutyl-N-(4-fluoro-3-(1-((1-methyl-1H-pyrazolo[3,4-b]pyrazin-6-yl)amino)ethyl)phenyl)-1H-pyrazole-4-carboxamide]	> 6.52	> 6.52
Cc1cc(C(=O)Nc2cccc([C@H](C)Nc3cnc4cnn(C)c4n3)c2)cnc1C(F)(F)F [Compound 125, (S)-5-methyl-N-(3-(1-((1-methyl-1H-pyrazolo[3,4-b]pyrazin-6-yl)amino)ethyl)phenyl)-6-(trifluoromethyl) nicotinamide]	> 6.52	> 6.52
Cc1cncc(C(=O)Nc2cccc([C@H](C)Nc3cnc4cnn(CC(F)F)c4n3)c2)c1 [Compound 183, (S)-N-(3-(1-((1-(2,2-difluoroethyl)-1H-pyrazolo[3,4-b]pyrazin-6-yl)amino)ethyl)phenyl)-5-methylnicotinamide]	> 6.52	6.00 to 6.52
CCn1cc2ncc(N[C@@H](C)c3cccc(NC(=O)Cc4cc(C)c(C)cn4)c3)nc2n1 [Compound 693, (S)-2-(4,5-dimethylpyridin-2-yl)-N-(3-(1-((2-ethyl-2H-pyrazolo[3,4-b]pyrazin-6-yl)amino)ethyl)phenyl)acetamide]	> 6.52	≤ 6.00

Continued, values first:

pIC50 [1]	pIC50 [2]	SMILES
> 6.52	> 6.52	CCn1cc2ncc(N[C@@H](C)c3cc(NC(=O)c4cnc(N5CCN(C)CC5)c(Cl)c4)ccc3F)nc2n1 [Compound 456, (S)-5-chloro-N-(3-(1-((2-ethyl-2H-pyrazolo[3,4-b]pyrazin-6-yl)amino)ethyl)-4-fluorophenyl)-6-(4-methylpiperazin-1-yl) nicotinamide]
> 6.52	> 6.52	CCn1cc2ncc(N[C@@H](C)c3cc(NC(=O)c4cnc(C5CC5)s4)ccc3F)nc2n1 [Compound 309, (S)-2-cyclopropyl-N-(3-(1-((2-ethyl-2H-pyrazolo[3,4-b]pyrazin-6-yl)amino)ethyl)-4-fluorophenyl)thiazole-5-carboxamide]
> 6.52	> 6.52	Cc1cncc(C(=O)Nc2cccc([C@H](C)Nc3cnc4cc(C)sc4n3)c2)c1 [Compound 19, (S)-5-methyl-N-(3-(1-((6-methylthieno[2,3-b]pyrazin-3-yl)amino)ethyl)phenyl)nicotinamide]
> 6.52	> 6.52	Cc1cc(C(=O)Nc2cccc([C@H](C)Nc3cnc4cnn(C)c4n3)c2)cnc1C(C)C [Compound 231, (S)-6-isopropyl-5-methyl-N-(3-(1-((1-methyl-1H-pyrazolo[3,4-6]pyrazin-6-yl)amino)ethyl)phenyl)nicotinamide]
> 6.52	> 6.52	CCn1cc2ncc(N[C@@H](C)c3cccc(NC(=O)Nc4cnc(C5CC5)c(C)c4)c3)nc2n1 [Compound 734, (S)-1-(6-cyclopropyl-5-methylpyridin-3-yl)-3-(3-(1-((2-ethyl-2H-pyrazolo[3,4-b]pyrazin-6-yl)amino)ethyl)phenyl)urea]
6.00 to 6.52	6.00 to 6.52	Cc1cncc(C(=O)Nc2cccc([C@H](C)Nc3cnc4cn(CC(C)C)nc4n3)c2)c1 [Compound 276, (S)-N-(3-(1-((2-isobutyl-2H-pyrazolo[3,4-b]pyrazin-6-yl)amino)ethyl)phenyl)-5-methylnicotinamide]
> 6.52	> 6.52	CCn1cc2ncc(N[C@@H](C)c3cccc(NC(=O)c4cnc(Cl)c(C)c4)c3)nc2n1 [Compound 383, (S)-6-chloro-N-(3-(1-((2-ethyl-2H-pyrazolo[3,4-b]pyrazin-6-yl)amino)ethyl)phenyl)-5-methylnicotinamide]
> 6.52	> 6.52	CCn1cc2ncc(N[C@@H](C)c3cc(NC(=O)c4cnc(OC)c(C)c4)ccc3F)nc2n1 [Compound 317, (S)-N-(3-(1-((2-ethyl-2H-pyrazolo[3,4-b]pyrazin-6-yl)amino)ethyl)-4-fluorophenyl)-6-methoxy-5-methylnicotinamide]
6.00 to 6.52	≤ 6.00	CCn1cc2ncc(N[C@@H](C)c3cccc(NC(=O)c4cnc(C5OCCO5)s4)c3)nc2n1 [Compound 400, (S)-2-(1,3-dioxolan-2-yl)-N-(3-(1-((2-ethyl-2H-pyrazolo[3,4-b]pyrazin-6-yl)amino)ethyl)phenyl)thiazole-5-carboxamide]
> 6.52	> 6.52	CCn1cc2ncc(N[C@@H](C)c3cccc(NC(=O)Cc4ccc(F)cc4)c3)nc2n1 [Compound 638, (S)-N-(3-(1-((2-ethyl-2H-pyrazolo[3,4-b]pyrazin-6-yl)amino)ethyl)phenyl)-2-(4-fluorophenyl)acetamide]
> 6.52	6.00 to 6.52	CCn1cc2ncc(N[C@@H](C)c3cccc(NC(=O)Nc4cnn(CC(C)C)c4)c3)nc2n1 [Compound 740, (S)-1-(3-(1-((2-ethyl-2H-pyrazolo[3,4-b]pyrazin-6-yl)amino)ethyl)phenyl)-3-(1-isobutyl-1H-pyrazol-4-yl)urea]
6.00 to 6.52	≤ 6.00	CCn1cc2ncc(N[C@@H](C)c3cccc(NC(=O)c4cnc(NCCOC)c(C)c4)c3)nc2n1 [Compound 392, (S)-N-(3-(1-((2-ethyl-2H-pyrazolo[3,4-b]pyrazin-6-yl)amino)ethyl)phenyl)-6-((2-methoxyethyl)amino)-5-methylnicotinamide]
≤ 6.00	≤ 6.00	Cc1cncc(C(=O)Nc2cccc([C@H](C)Nc3cncc4[nH]ncc34)c2)c1 [Compound 749, (S)-N-(3-(1-((1H-pyrazolo[3,4-c]pyridin-4-yl)amino)ethyl)phenyl)-5-methylnicotinamide]
> 6.52	> 6.52	Cc1ccc(C(=O)Nc2cccc([C@H](C)Nc3cnc4cnn(C)c4n3)c2)cc1C [Compound 234, (S)-3,4-dimethyl-N-(3-(1-((1-methyl-1H-pyrazolo[3,4-b]pyrazin-6-yl)amino)ethyl)phenyl)benzamide]
> 6.52	> 6.52	Cc1cncc(C(=O)Nc2cccc([C@H](C)Nc3cnc4ccoc4n3)c2)c1 [Compound 605, (S)-N-(3-(1-(furo[2,3-b]pyrazin-3-ylamino)ethyl)phenyl)-5-methylnicotinamide]
